Test results from patent publication US12150945B2, “Liver disease” (Lipocine Inc., priority 2018, dated 2024).

How the values were obtained:
Format in all cases: in vivo, human
[1] = Serum DHT, DHT/T ratio, E2 and calculated free T, hormone assessment in trial of Example 1; details: for ratio of DHT/T based on Cavg0-24 h / ratio of DHT/T based on Cmax: normal range 0.05 to 0.33
Experimental: (§1) Subjects were randomized in a 2:1 ratio to oral testosterone undecanoate or T gel. oral testosterone undecanoate subjects started at a dose of 225 mg TU (“testosterone undecanoate”) taken twice daily (total daily dose: 450 mg TU) every 12 hours. For optimal lymphatic absorption oral testosterone undecanoate must be administered with a meal. Therefore, subjects were instructed to administer oral testosterone undecanoate after a standard meal (defined as a meal consisting of 800 to 1400 calories with approximately 20% to 35% fat content). The oral testosterone undecanoate dose was titrated at Weeks 4 and 8, if necessary, based on results of intensive 24-hour PK blood sampling obtained at Weeks 3 and 7, respectively. Oral testosterone undecanoate subjects stayed at the clinic overnight during each intensive PK blood sampling period. […] Oral testosterone undecanoate dose levels permitted during the study were 150 mg BID, 225 mg BID, and 300 mg BID. Data collected during an intensive 24-hour PK sampling overnight stay at Week 13 were used for efficacy analysis; dose was not adjusted at this visit. Additional outpatient visits were conducted at Weeks 26, 39, and 52 during which single blood draws were performed 3 to 6 hours post morning dose. Dose was not adjusted during these visits.
Serum levels of T, TU, dihydrotestosterone (DHT), dihydrotestosterone undecanoate (DHTU), and estradiol (E2) were evaluated in oral testosterone undecanoate treated subjects. […] Sex hormone binding globulin (SHBG) was evaluated in data from all subjects. Serum T concentrations at screening were measured using chemiluminescence immunoassay kits. Hormone assays for pharmacokinetic assessment were analyzed at PPD Bioanalytical Laboratory in Richmond, Virginia Serum samples were analyzed for T, DHT, TU, DHTU, and E2 using a validated liquid chromatography-tandem mass spectrometry (LC-MS/MS) assay.

liver function enzymes = test: Liver function enzymes (ALT, AST, ALP, GGT, bilirubin), change from baseline to end of study, trial of Example 1
Experimental: (§2) Oral testosterone therapy was evaluated in a multicenter, phase 3, randomized, open-label, active controlled, parallel-group study that included a 13-week efficacy phase and a 52-week safety phase. An active arm in which subjects received T gel was included for safety evaluation only.
as §1
(§3) T gel (ANDROGEL®) (testosterone gel for topical use) 1.62%, AbbVie, Chicago, Illinois, US) was supplied in non-aerosol, metered dose pumps that deliver 20.25 mg T per complete pump actuation. T gel was dosed according to product labeling. Subjects receiving T gel completed outpatient visits at Weeks 2 and 4 with single blood draws to determine titration and at Weeks 3 and 5 for dose changes, if necessary. They also completed an outpatient visit at Week 7 for safety assessments and at Weeks 13, 26, 39 and 52 during which single blood samples were obtained 3 to 6 hours after the morning dose. Dose was not adjusted during these visits. Overnight clinic stays were not required for T gel subjects.
(§4) Safety endpoints included adverse events (AEs), physical examination findings, vital signs, electrocardiograms (ECGs), and clinical laboratory tests. AEs were classified using the Medical Dictionary for Regulatory Activities (Version 16.1). Safety endpoints were summarized using descriptive statistics. Lab parameters were evaluated using two sample t-tests comparing change from baseline to end of study (EOS) across oral testosterone undecanoate and T gel subjects with p-values <0.05 considered statistically significant.

hematocrit, hemoglobin = test: Androgenic parameters (hematocrit, hemoglobin), change from baseline to end of study, safety set, trial of Example 1
Experimental: as §2, §1, §3, §4

liver fat = test: Liver Fat Study: liver fat by MRI-PDFF in hypogonadal males treated with LPCN 1144 (Example 6); details: for Mean relative liver fat % change: 16 weeks of treatment
Experimental: In an a prospective design open-label, multi-center, single arm ‘Liver Fat Study’ evaluating LPCN 1144 (oral testosterone undecanoate) treatment in hypogonadal patients, baseline % liver fat was assessed via MRI-PDFF in a subset of study patients (N=36).
This example is part of an ongoing Liver Fat Study which is an open-label, multi-center, single arm study evaluating LPCN 1144 treatment (e.g., androgen therapy, testosterone therapy, oral testosterone ester, or 225 mg testosterone undecanoate orally) in a cohort of 36 hypogonadal males (NCT03868059). Subjects with at least 10% baseline liver fat were evaluated which is indicative of subjects with NAFLD with the potential to have NASH. Interim results of seven of the nine subjects in the Liver Fat Study with baseline liver fat of at least 10% are presented as two subjects were unable to schedule an eight-week MRI-PDFF visit. Baseline mean liver fat of these seven subjects was 21.0%.
An MRI-PDFF study of 36 male hypogonadal subjects (having 2 morning testosterone levels of 300 ng/dL or less) was performed as part of an ongoing trial. Basic baseline labs including liver function tests (e.g., AST & ALT) and serum triglycerides were collected and analyzed. It was found by non-linear regression, that BMI (ALT, AST, serum Triglyceride) was associated with liver fat (P<0.006). It was found by non-linear regression, that serum triglyceride levels (obesity, hypertension, type 2 diabetes) were associated with liver fat (P<0.006).

[2] = 4th quartile patients based on lab parameter level, 1 year study
[3] = Safety Set, baseline to end of study
[4] = interim, eight-week MRI-PDFF, seven subjects with baseline liver fat of at least 10%

CCCCCCCCCCC(=O)O[C@H]1CC[C@H]2[C@@H]3CCC4=CC(=O)CC[C@]4(C)[C@H]3CC[C@]12C [oral testosterone undecanoate, testosterone undecanoate]
ratio of DHT/T based on Cavg0-24 h ([1]; Week 3): 0.24
ratio of DHT/T based on Cmax ([1]; Week 3): 0.16
ratio of DHT/T based on Cavg0-24 h ([1]; Week 7): 0.26
ratio of DHT/T based on Cmax ([1]; Week 7): 0.18
ratio of DHT/T based on Cavg0-24 h ([1]; Week 13): 0.26
ratio of DHT/T based on Cmax ([1]; Week 13): 0.18
Calculated free T levels ([1]; normal values 9 to 30 ng/dL): consistently within normal values
ALP, mean change from baseline (liver function enzymes; [2]): −10.2 U/L
ALP, mean change from baseline, % (liver function enzymes; [2]): −10.4%
ALT, mean change from baseline (liver function enzymes; [2]): −10.0 U/L
ALT, mean change from baseline, % (liver function enzymes; [2]): −16.7%
AST, mean change from baseline (liver function enzymes; [2]): -6.3 U/L
AST, mean change from baseline, % (liver function enzymes; [2]): −16.6%
Albumin, mean change from baseline (liver function enzymes; [2]): -2.5 g/L
Albumin, mean change from baseline, % (liver function enzymes; [2]): −3.1%
Bilirubin, mean change from baseline (liver function enzymes; [2]): -0.18 mg/dL
Bilirubin, mean change from baseline, % (liver function enzymes; [2]): −20.5%
Creatinine, mean change from baseline (liver function enzymes; [2]): 0.01 mg/dL
Creatinine, mean change from baseline, % (liver function enzymes; [2]): 0.8%
GGT, mean change from baseline (liver function enzymes; [2]): −7.0 U/L
GGT, mean change from baseline, % (liver function enzymes; [2]): −7.4%
ALT, mean (SD) change from baseline to end of study (liver function enzymes; [3]): −3.07 (11.22) U/L
AST, mean (SD) change from baseline to end of study (liver function enzymes; [3]): −1.5 (7.52) U/L
Alkaline phosphatase, mean (SD) change from baseline to end of study (liver function enzymes; [3]): −4.1 (13.33) U/L
Bilirubin, mean (SD) change from baseline to end of study (liver function enzymes; [3]): −0.43 (3.66) mcmol/L
GGT, mean (SD) change from baseline to end of study (liver function enzymes; [3]): −2.0 (12.50) U/L
Elevated hematocrit (>54%), number of subjects (hematocrit, hemoglobin; 52-week safety phase): 8 subjects
subjects withdrawn for elevated hematocrit (>54%) (hematocrit, hemoglobin; 52-week safety phase): 1.4%
Hematocrit, mean (SD) change from baseline to end of study (hematocrit, hemoglobin; Safety Set, N = 314, baseline to end of study): 2.54 (3.41) %
APTT, mean (SD) change from baseline to end of study (hematocrit, hemoglobin; [3]): 0.61 (4.07)
Hemoglobin, mean (SD) change from baseline to end of study (hematocrit, hemoglobin; [3]): 7.2 (10.65) g/L
PSA, mean (SD) change from baseline to end of study (hematocrit, hemoglobin; [3]): 0.27 (0.97) mcg/L
Platelets, mean (SD) change from baseline to end of study (hematocrit, hemoglobin; [3]): 8.5 (31.34) 10^9/L
Prothrombin time, mean (SD) change from baseline to end of study (hematocrit, hemoglobin; [3]): 0.31 (1.14) sec
hemoglobin, pretreatment to EOS (hematocrit, hemoglobin; in vivo): Small and similar increases
Mean relative liver fat % change (liver fat; baseline liver fat of 8% or greater): −42%
Mean relative liver fat % change (liver fat; baseline liver fat of 10% or greater): −40%
Mean relative liver fat % change (liver fat; subjects having NAFLD (baseline liver fat of 5% or greater)): −33%
NAFLD resolved (baseline liver fat greater than or equal to 5% going to less than 5% at end of study), % of subjects (liver fat; end of study): 48%
mean relative liver fat change in patients with NAFLD resolution (liver fat; end of study): −55%
responder rate (% of patients with at least a 30% relative reduction in liver fat from baseline) (liver fat; end of study, greater than or equal to 5% baseline liver fat): 71%
responder rate (% of patients with at least a 30% relative reduction in liver fat from baseline) (liver fat; end of study, greater than or equal to 8% baseline liver fat): 80%
responder rate (% of patients with at least a 30% relative reduction in liver fat from baseline) (liver fat; end of study, greater than or equal to 10% baseline liver fat): 70%
relative mean liver fat reduction from baseline (liver fat; [4]): 38%
responder rate: at least a 4.1% absolute reduction in liver fat from baseline (liver fat; [4]): 86%
responder rate: at least a 29% reduction in liver fat from baseline (liver fat; [4]): 71%
absolute mean reduction from baseline of liver fat (MRI-PDFF) (liver fat; interim, eight-week MRI-PDFF, seven subjects with baseline liver fat of at least 10%, baseline mean 21.0%): 7.6%
